Assay results taken from patent US20250179079A1, “HEXAHYDROPYRIDO[4,3-B]INDOLYL KETONE DERIVATIVES USEFUL AS CGAS MODULATORS” (Ventus Therapeutics U.S., Inc., priority 2022, published 2025).
Like-named read-outs stand apart in the source and are kept apart here.

Target: h-cGAS (Homo sapiens (Human), UniProt Q8N884)
Assay: hcGAS Kinase-Glo assay
Assay type: biochemical
[1] = Table C, raw data in parentheses, read-out: hcGAS IC50

Chain of h-cGAS (Q8N884 whole entry): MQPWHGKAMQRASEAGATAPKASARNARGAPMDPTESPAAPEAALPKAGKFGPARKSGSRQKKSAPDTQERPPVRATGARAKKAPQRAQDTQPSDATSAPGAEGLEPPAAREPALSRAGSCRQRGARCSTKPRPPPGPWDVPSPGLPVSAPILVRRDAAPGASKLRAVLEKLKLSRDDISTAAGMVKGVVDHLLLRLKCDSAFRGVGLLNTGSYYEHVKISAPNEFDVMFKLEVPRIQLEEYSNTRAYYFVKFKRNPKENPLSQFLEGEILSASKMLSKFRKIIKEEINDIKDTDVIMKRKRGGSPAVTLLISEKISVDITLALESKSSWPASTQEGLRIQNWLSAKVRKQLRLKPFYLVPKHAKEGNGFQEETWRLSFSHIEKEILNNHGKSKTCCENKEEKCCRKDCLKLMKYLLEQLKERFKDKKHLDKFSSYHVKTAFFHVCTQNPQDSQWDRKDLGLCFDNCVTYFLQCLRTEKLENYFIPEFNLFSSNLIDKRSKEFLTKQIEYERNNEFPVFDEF

Structure (SMILES)	IC50 [1] [nM]	IC50 (read-out: hcGAS activity) [nM]
CC1c2c([nH]c3c(Cl)c(Cl)ccc23)CCN1C(=O)c1ncc(N2CCOCC2)cn1 (racemic) [Rac-44, (6,7-dichloro-1-methyl-1,3,4,5-tetrahydro-2H-pyrido[4,3-b]indol-2-yl)(5-morpholinopyrimidin-2-yl)methanone]	68.5	< 100
CNc1cnc(C(=O)N2CCc3[nH]c4c(Cl)c(Cl)ccc4c3C2C)nc1 (racemic) [Rac-46, (6,7-dichloro-1-methyl-1,3,4,5-tetrahydro-2H-pyrido[4,3-b]indol-2-yl)(5-(methylamino)pyrimidin-2-yl)methanone]	51.4	< 100
CC1c2c([nH]c3c(Cl)c(Cl)ccc23)CCN1C(=O)c1ncc(N(C)CCN(C)C)cn1 (racemic) [Rac-47, (6,7-dichloro-1-methyl-1,3,4,5-tetrahydro-2H-pyrido[4,3-b]indol-2-yl)(5-((2-(dimethylamino)ethyl)(methyl)amino)pyrimidin-2-yl)methanone]	50.1	
CC1c2c([nH]c3c(Cl)c(Cl)ccc23)CCN1C(=O)c1ncc(N2CCN(C)CC2)cn1 (racemic) [Rac-48, (6,7-dichloro-1-methyl-1,3,4,5-tetrahydro-2H-pyrido[4,3-b]indol-2-yl)(5-(4-methylpiperazin-1-yl)pyrimidin-2-yl)methanone]	52	
CC1c2c([nH]c3c(Cl)c(Cl)ccc23)CCN1C(=O)c1ncc(N2CCN(C3COC3)CC2)cn1 (racemic) [Rac-49, (6,7-dichloro-1-methyl-1,3,4,5-tetrahydro-2H-pyrido[4,3-b]indol-2-yl)(5-(4-(oxetan-3-yl)piperazin-1-yl)pyrimidin-2-yl)methanone]	102	
CC1c2c([nH]c3c(Cl)c(Cl)ccc23)CCN1C(=O)c1ncc(N2CCN3CC(F)(F)C[C@H]3C2)cn1 (mixture of isomers) [Rac-50, (6,7-dichloro-1-methyl-1,3,4,5-tetrahydro-2H-pyrido[4,3-b]indol-2-yl)(5-((S)-7,7-difluorohexahydropyrrolo[1,2-a]pyrazin-2(1H)-yl)pyrimidin-2-yl)methanone]	89.5	
CC1c2c([nH]c3c(Cl)c(Cl)ccc23)CCN1C(=O)CN (racemic) [Rac-51, 2-amino-1-(6,7-dichloro-1-methyl-1,3,4,5-tetrahydro-2H-pyrido[4,3-b]indol-2-yl)ethan-1-one]	37.7	
COCCOc1ccnc(C(=O)N2CCc3[nH]c4c(Cl)c(Cl)ccc4c3C2C)n1 (racemic) [Rac-67, (6,7-dichloro-1-methyl-1,3,4,5-tetrahydro-2H-pyrido[4,3-b]indol-2-yl)(4-(2-methoxyethoxy)pyrimidin-2-yl)methanone]	251	< 100

Now from value to compound:

IC50 [1] [nM]	IC50 (read-out: hcGAS activity) [nM]	Structure (SMILES)
94.5	< 100	COc1ccnc(C(=O)N2CCc3[nH]c4c(Cl)c(Cl)ccc4c3C2C)n1 (racemic) [Rac-68, (6,7-dichloro-1-methyl-1,3,4,5-tetrahydro-2H-pyrido[4,3-b]indol-2-yl)(4-methoxypyrimidin-2-yl)methanone]
78.7	< 100	CC1c2c([nH]c3c(Cl)c(Cl)ccc23)CCN1C(=O)c1nccc(OCCO)n1 (racemic) [Rac-70, (6,7-dichloro-1-methyl-1,3,4,5-tetrahydro-2H-pyrido[4,3-b]indol-2-yl)(4-(2-hydroxyethoxy)pyrimidin-2-yl)methanone]
206		COc1cnc(C(=O)N2CCc3[nH]c4c(Cl)c(Cl)ccc4c3C2C)nc1OC (racemic) [Rac-83, (6,7-dichloro-1-methyl-1,3,4,5-tetrahydro-2H-pyrido[4,3-b]indol-2-yl)(4,5-dimethoxypyrimidin-2-yl)methanone]
110		CC1c2c([nH]c3c(Cl)c(Cl)ccc23)CCN1C(=O)c1nccc(OCCN(C)C)n1 (racemic) [Rac-88, (6,7-dichloro-1-methyl-1,3,4,5-tetrahydro-2H-pyrido[4,3-b]indol-2-yl)(4-(2-(dimethylamino)ethoxy)pyrimidin-2-yl)methanone]
821		CC1c2c([nH]c3c(Cl)c(Cl)ccc23)CCN1C(=O)NO (racemic) [Rac-97, 6,7-dichloro-N-hydroxy-1-methyl-1,3,4,5-tetrahydro-2H-pyrido[4,3-b]indole-2-carboxamide]
